Experiment [1] addresses Factor XIa (Homo sapiens (Human), UniProt P03951). As to the kind of experiment: Factor XIa inhibition assay (FLINT) utilizing a fluorophore-quencher pair peptide substrate. The class given is biochemical. Conditions: 30 min preincubation, kinetic reads over 30 min, 5Fam-KLTRAETV-K5Tamra substrate 15 μM; read-out: FXIa Kin Inh IC50. In a few lines: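 FXIa ([…]) preincubated 30 min with compound (11-point 3-fold dilution, top 100 nM, 2% DMSO), then 15 μM quenched FXI Arg146-based peptide added; Tris pH 7.5, CaCl2, BSA, CHAPS. Fluorescence 485/520 nm read kinetically every 5 min over 30 min at RT; IC50 by 4-parameter fit.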

Experiment [2] deals with human plasma kallikrein (Homo sapiens (Human), UniProt P03952). In words: Kallikrein inhibition assay (FLINT) utilizing a quenched AMC peptide substrate. The class given is biochemical. The note with it: 30 min preincubation, kinetic reads over 30 min, Z-Gly-Pro-Arg-AMC substrate 50 μM; read-out: Kallikrein Kin Inh IC50. In short, it runs like this:
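Enzyme (2 nM final) pre-incubated 30 min at room temperature with compound (11-point, 3-fold, top 1 μM, 2% DMSO), then 50 μM Z-Gly-Pro-Arg-AMC added in Tris pH 7.5 buffer. Kinetic fluorescence 340/440 nm every 5 min over 30 min; IC50 from 4-parameter logistic fit.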

Where only a bound is given, the exact number is not on record here.

Factor XIa, sequence (P03951 388-625): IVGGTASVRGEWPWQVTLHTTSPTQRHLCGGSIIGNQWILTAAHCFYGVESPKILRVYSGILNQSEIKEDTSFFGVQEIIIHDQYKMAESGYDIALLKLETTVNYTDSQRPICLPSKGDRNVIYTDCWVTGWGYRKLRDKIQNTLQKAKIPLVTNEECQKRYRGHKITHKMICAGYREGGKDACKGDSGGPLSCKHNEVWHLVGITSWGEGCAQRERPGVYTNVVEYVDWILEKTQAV
Factor XIa, sequence (P03951 19-387 partner): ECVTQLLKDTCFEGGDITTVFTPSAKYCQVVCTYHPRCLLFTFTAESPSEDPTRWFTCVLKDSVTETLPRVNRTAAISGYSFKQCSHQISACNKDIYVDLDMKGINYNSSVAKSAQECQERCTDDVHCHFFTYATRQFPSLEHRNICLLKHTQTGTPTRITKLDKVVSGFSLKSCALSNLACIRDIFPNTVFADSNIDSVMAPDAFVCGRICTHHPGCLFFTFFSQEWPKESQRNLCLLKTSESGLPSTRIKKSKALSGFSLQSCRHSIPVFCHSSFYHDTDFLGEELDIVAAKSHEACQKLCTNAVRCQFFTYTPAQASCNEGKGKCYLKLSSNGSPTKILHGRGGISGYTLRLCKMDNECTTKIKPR
human plasma kallikrein, sequence (P03952 391-638): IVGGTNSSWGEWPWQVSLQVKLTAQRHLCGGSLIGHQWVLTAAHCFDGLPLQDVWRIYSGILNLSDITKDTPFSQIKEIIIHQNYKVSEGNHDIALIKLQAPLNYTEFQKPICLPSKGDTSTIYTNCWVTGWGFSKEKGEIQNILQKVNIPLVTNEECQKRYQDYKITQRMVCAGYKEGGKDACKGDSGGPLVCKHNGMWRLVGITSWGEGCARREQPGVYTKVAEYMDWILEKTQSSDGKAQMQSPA
human plasma kallikrein, sequence (P03952 20-390 partner): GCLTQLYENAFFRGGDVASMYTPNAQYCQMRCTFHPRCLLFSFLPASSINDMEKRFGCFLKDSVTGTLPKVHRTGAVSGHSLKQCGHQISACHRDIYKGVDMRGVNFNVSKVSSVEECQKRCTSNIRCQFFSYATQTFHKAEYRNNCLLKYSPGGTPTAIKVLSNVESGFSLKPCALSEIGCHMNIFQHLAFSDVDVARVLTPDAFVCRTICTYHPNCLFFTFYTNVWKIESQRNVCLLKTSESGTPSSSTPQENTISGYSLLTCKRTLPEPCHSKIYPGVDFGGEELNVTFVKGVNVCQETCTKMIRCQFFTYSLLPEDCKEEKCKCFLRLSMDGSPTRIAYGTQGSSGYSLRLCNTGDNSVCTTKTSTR

In general, IC50 refers to the concentration that inhibits the measured activity by half. Consider `NC(=O)c1scc(-c2c[nH]c([C@@H]3CC[C@@H]4CC(c5c(-n6cnnn6)ccc(Cl)c5F)=CC(=O)N43)n2)c1F` [Example 214, 4-(2-((3S,8aR)-7-(3-Chloro-2-fluoro-6-(1H-tetrazol-1-yl)phenyl)-5-oxo-1,2,3,5,8,8a-hexahydroindolizin-3-yl)-1H-imidazol-4-yl)-3-fluorothiophene-2-carboxamide], for which the figures for the IC50 in experiment [1] and in experiment [2] were 1.4 nM and 1.7 nM, respectively.

As to `NC(=O)c1sc(-c2c[nH]c([C@@H]3CC[C@H]4CC(c5c(-n6cnnn6)ccc(Cl)c5F)=CC(=O)N43)n2)cc1F` [Example 215, 5-(2-((3S,8aS)-7-(3-Chloro-2-fluoro-6-(1H-tetrazol-1-yl)phenyl)-5-oxo-1,2,3,5,8,8a-hexahydroindolizin-3-yl)-1H-imidazol-4-yl)-3-fluorothiophene-2-carboxamide], the IC50 is above 100 nM in experiment [1] and 117 nM in experiment [2].

Regarding `NC(=O)c1sc(-c2c[nH]c([C@@H]3CC[C@@H]4CC(c5c(-n6cnnn6)ccc(Cl)c5F)=CC(=O)N43)n2)cc1F` [Example 216, 5-(2-((3S,8aR)-7-(3-Chloro-2-fluoro-6-(1H-tetrazol-1-yl)phenyl)-5-oxo-1,2,3,5,8,8a-hexahydroindolizin-3-yl)-1H-imidazol-4-yl)-3-fluorothiophene-2-carboxamide], the IC50 in experiment [1] turned out to be 19.6 nM; in experiment [2] it was 27.4 nM.

`O=C1C=C(c2c(-n3cnnn3)ccc(Cl)c2F)C[C@H]2CC[C@@H](c3ncc(-c4c[nH]nc4F)[nH]3)N12` [Example 217, (3S,8aR)-7-(3-Chloro-2-fluoro-6-(1H-tetrazol-1-yl)phenyl)-3-(5-(3-fluoro-1H-pyrazol-4-yl)-1H-imidazol-2-yl)-2,3,8,8a-tetrahydroindolizin-5(1H)-one]: the IC50 in experiment [1] came to 4.5 nM; in experiment [2], 32.6 nM.

For the compound `NC(=O)c1cc(-c2nc([C@@H]3CCC4CC(c5c(-n6cnnn6)ccc(Cl)c5F)=CC(=O)N43)[nH]c2Cl)cs1` (stereo partly drawn) [Example 218, 4-(5-Chloro-2-((3S)-7-(3-chloro-2-fluoro-6-(1H-tetrazol-1-yl)phenyl)-5-oxo-1,2,3,5,8,8a-hexahydroindolizin-3-yl)-1H-imidazol-4-yl)thiophene-2-carboxamide], the IC50 in experiment [1] amounted to 0.3 nM; in experiment [2] it was 0.7 nM.

Regarding `NC(=O)c1cc(-c2c[nH]c([C@@H]3CCC4CC(c5c(-n6cnnn6)ccc(Cl)c5F)=CC(=O)N43)n2)cs1` (stereo partly drawn) [Example 219, 4-(2-((3S)-7-(3-Chloro-2-fluoro-6-(1H-tetrazol-1-yl)phenyl)-5-oxo-1,2,3,5,8,8a-hexahydroindolizin-3-yl)-1H-imidazol-4-yl)thiophene-2-carboxamide], the IC50 in experiment [1] turned out to be 2.1 nM; in experiment [2], 1.9 nM.

Consider `NC(=O)c1ccc(-c2c[nH]c([C@@H]3CC[C@@H]4CC(c5c(-n6cc(C(F)(F)F)nn6)ccc(Cl)c5F)=CC(=O)N43)n2)s1` [Example 220, 5-(2-((3S,8aR)-7-(3-Chloro-2-fluoro-6-(4-(trifluoromethyl)-1H-1,2,3-triazol-1-yl)phenyl)-5-oxo-1,2,3,5,8,8a-hexahydroindolizin-3-yl)-1H imidazol-4-yl)thiophene-2-carboxamide], for which the IC50 is 5 nM in experiment [1] and 9.7 nM in experiment [2].

In the case of `O=C1C=C(c2c(-n3cnnn3)ccc(Cl)c2F)C[C@H]2CC[C@@H](c3ncc(-c4ccnc(CO)c4F)[nH]3)N12` [Example 222, (3S,8aR)-7-(3-Chloro-2-fluoro-6-(1H-tetrazol-1-yl)phenyl)-3-(5-(3-fluoro-2-(hydroxymethyl)pyridin-4-yl)-1H-imidazol-2-yl)-2,3,8,8a-tetrahydroindolizin-5(1H)-one], the figures for the IC50 in experiment [1] and in experiment [2] were 1.8 nM and 12.6 nM, respectively.

Turning to `O=C1C=C(c2c(-n3cc(C(F)(F)F)nn3)ccc(Cl)c2F)C[C@H]2CC[C@@H](c3ncc(-c4ccc(CO)nc4Cl)[nH]3)N12` [Example 223, (3S,8aR)-7-(3-Chloro-2-fluoro-6-(4-(trifluoromethyl)-1H-1,2,3-triazol-1-yl)phenyl)-3-(5-(2-chloro-6-(hydroxymethyl)pyridin-3-yl)-1H-imidazol-2-yl)-2,3,8,8a-tetrahydroindolizin-5(1H)-one], the IC50 in experiment [1] came to 15.9 nM; in experiment [2] it was 138 nM.

Turning to `COc1n[nH]cc1-c1cnc([C@@H]2CC[C@@H]3CC(c4c(-n5cnnn5)ccc(Cl)c4F)=CC(=O)N32)[nH]1` [Example 227, (3S,8aR)-7-(3-chloro-2-fluoro-6-(1H-tetrazol-1-yl)phenyl)-3-(5-(3-methoxy-1H-pyrazol-4-yl)-1H-imidazol-2-yl)-2,3,8,8a-tetrahydroindolizin-5(1H)-one], the values for the IC50 in experiment [1] and in experiment [2] were 3.5 nM and 11.4 nM, respectively.

For `NC(=O)c1ccc(-c2cnc([C@@H]3CC[C@H]4CC(c5c(-n6cnnn6)ccc(Cl)c5F)=CC(=O)N43)[nH]2)c(Cl)n1` [Example 228, 6-Chloro-5-(2-((3S,8aS)-7-(3-chloro-2-fluoro-6-(1H-tetrazol-1-yl)phenyl)-5-oxo-1,2,3,5,8,8a-hexahydroindolizin-3-yl)-1H-imidazol-5-yl)picolinamide], the IC50 was 18.8 nM in experiment [1] and 162 nM in experiment [2].

Regarding `NC(=O)c1ccc(-c2cnc([C@@H]3CC[C@@H]4CC(c5c(-n6cnnn6)ccc(Cl)c5F)=CC(=O)N43)[nH]2)c(Cl)n1` [Example 229, 6-Chloro-5-(2-((3S,8aR)-7-(3-chloro-2-fluoro-6-(1H-tetrazol-1-yl)phenyl)-5-oxo-1,2,3,5,8,8a-hexahydroindolizin-3-yl)-1H-imidazol-5-yl)picolinamide], the IC50 in experiment [1] stood at 54.9 nM; in experiment [2], 342 nM.

Take `O=C1C=C(c2c(-n3cnnn3)ccc(Cl)c2F)C[C@H]2CC[C@@H](c3ncc(-c4c[nH]cc4C(F)(F)F)[nH]3)N12` [Example 230, (3S,8aR)-7-(3-Chloro-2-fluoro-6-(1H-tetrazol-1-yl)phenyl)-3-(5-(4-(trifluoromethyl)-1H-pyrrol-3-yl)-1H-imidazol-2-yl)-2,3,8,8a-tetrahydroindolizin-5(1H)-one]: the figures for the IC50 in experiment [1] and in experiment [2] were 0.4 nM and 11.1 nM, respectively.

`O=C1C=C(c2c(-n3cnnn3)ccc(Cl)c2F)C[C@H]2CC[C@@H](c3ncc(-c4c[nH]c(C(F)(F)F)n4)[nH]3)N12` [Example 231, (3S,8aR)-7-(3-Chloro-2-fluoro-6-(1H-tetrazol-1-yl)phenyl)-3-(2-(trifluoromethyl)-1H,3′H-[4,4′-biimidazol]-2′-yl)-2,3,8,8a-tetrahydroindolizin-5(1H)-one]: the IC50 is 37.1 nM in experiment [1] and 84.6 nM in experiment [2].

Take `NC(=O)c1cc(-c2cnc([C@@H]3CC[C@H]4CC(c5c(-n6cnnn6)ccc(Cl)c5F)=CC(=O)N43)[nH]2)ccc1F` [Example 232, 5-(2-((3S,8aS)-7-(3-Chloro-2-fluoro-6-(1H-tetrazol-1-yl)phenyl)-5-oxo-1,2,3,5,8,8a-hexahydroindolizin-3-yl)-1H-imidazol-5-yl)-2-fluorobenzamide]: the IC50 in experiment [1] was above 100 nM; in experiment [2], 17.8 nM.

For the compound `NC(=O)c1cc(-c2cnc([C@@H]3CC[C@@H]4CC(c5c(-n6cnnn6)ccc(Cl)c5F)=CC(=O)N43)[nH]2)ccc1F` [Example 233, 5-(2-((3S,8aR)-7-(3-chloro-2-fluoro-6-(1H-tetrazol-1-yl)phenyl)-5-oxo-1,2,3,5,8,8a-hexahydroindolizin-3-yl)-1H-imidazol-5-yl)-2-fluorobenzamide], the results for the IC50 in experiment [1] and in experiment [2] were 24.2 nM and 6.7 nM, respectively.
